{
  "source": "patent US4689321A",
  "about": "“Oxo propenyl nucleosides and nucleoside related analogs” (The Research Foundation of State University of New York, priority 1984, dated 1987)",
  "key": {"[1]": {"tested_on": "DNA synthesis in HeLa cells", "experiment": "inhibition of DNA synthesis in HeLa cells", "type": "cell-based", "settings": "Homo sapiens, 1 h, 60 min", "experimental": "(§1) Effects of Inhibitors on Synthesis of DNA and TTP in HeLa Cells\n^a Measured, over a period of 60 min., as described in the Legend to […]"}, "murine leukemia": {"tested_on": "murine leukemia", "experiment": "murine leukemia model, ascites cells implanted i.p. in mice (Table I)", "type": "in vivo, murine (CFD1+ mice)", "settings": "for Effect MST % T/C: >125 considered significant; for MST (median survival time): control 6.5", "from_the_text": "Tumor Inoculum: 10^6 ascites cells implanted i.p.\nEvaluation: MST = median survival time\nEffect: % T/C = (MST treated/MST control) × 100."}, "[2]": {"tested_on": "DLD-1 human colon carcinoma", "experiment": "tumor cell growth in culture, DLD-1 human colon carcinoma", "type": "cell-based", "settings": "testing at Brown University", "excerpt": "(§2) on Tumor Cell Growth in Culture\n^b Testing performed at Brown University. Cell lines and methodology"}, "Lewis lung carcinoma": {"tested_on": "Lewis lung carcinoma", "experiment": "tumor cell growth in culture, Lewis lung carcinoma", "type": "cell-based", "settings": "testing at Roswell Park Memorial Institute", "excerpt": "as §2\n(§3) ^a Testing performed at Roswell Park Memorial Institute. See proposal\n(§4) for methodology and references."}, "DNA synthesis": {"tested_on": "DNA synthesis", "experiment": "cytotoxicity and effect on DNA, RNA and protein synthesis (Fig. I)", "type": "cell-based"}, "L-1210 Leukemia": {"tested_on": "L-1210 Leukemia", "experiment": "tumor cell growth in culture, L-1210 Leukemia", "type": "cell-based", "settings": "Mus musculus, L1210, testing at Roswell Park Memorial Institute", "excerpt": "as §2, §3, §4"}, "B-16 melanoma": {"tested_on": "B-16 melanoma", "experiment": "tumor cell growth in culture, B-16 melanoma", "type": "cell-based", "settings": "Mus musculus, B16, testing at Roswell Park Memorial Institute", "excerpt": "as §2, §3, §4"}, "[3]": {"tested_on": "TTP formation in HeLa cells", "experiment": "inhibition of TTP formation in HeLa cells", "type": "cell-based", "settings": "Homo sapiens, 0.5 h, 30 min", "experimental": "as §1\n^b HeLa cells were suspended for 30 min. in 2 ml. of minimal essentia\nmedia containing 25 uCi of ^3 H--thymidine. Cells were lysed, carrier\nnucleotides added and ^3 H--TTP isolated by thin layer chromatography"}, "[4]": {"settings": "2 mg/kg/inj IP, schedule qd 1 5"}, "[5]": {"settings": "4 mg/kg/inj IP, schedule qd 1 5"}, "[6]": {"settings": "8 mg/kg/inj IP, schedule qd 1 5"}, "[7]": {"settings": "16 mg/kg/inj IP, schedule qd 1 5"}},
  "note": "pIC50: −log10 of the molar value.",
  "data": [
    {"compound": "Cc1cn([C@H]2C[C@H](O)[C@@H](CO)O2)c(=O)n(C=CC=O)c1=O", "note": "[XX-336, 3-(thymidin-3-yl)-prop-2-enal]", "values": [
      {"measurement": "inhibition at 0.1 µM", "setting": "[1]; 0.1 μM", "result": 6, "unit": "%"},
      {"measurement": "inhibition at 0.3 µM", "setting": "[1]; 0.3 μM", "result": 38, "unit": "%"},
      {"measurement": "inhibition at 1 µM", "setting": "[1]; 1.0 μM", "result": 70, "unit": "%"},
      {"measurement": "inhibition at 2 µM", "setting": "[1]; 2.0 μM", "result": 88, "unit": "%"},
      {"measurement": "inhibition at 20 µM", "setting": "[1]; 20.0 μM", "result": 100, "unit": "%"},
      {"measurement": "Effect MST % T/C", "setting": "murine leukemia; [4]", "result": 123, "unit": "%"},
      {"measurement": "MST (median survival time)", "setting": "murine leukemia; [4]", "result": 8.0, "unit": "days"},
      {"measurement": "Effect MST % T/C", "setting": "murine leukemia; [5]", "result": 123, "unit": "%"},
      {"measurement": "MST (median survival time)", "setting": "murine leukemia; [5]", "result": 8.0, "unit": "days"},
      {"measurement": "Effect MST % T/C", "setting": "murine leukemia; 8 mg/kg/inj IP, schedule d.1", "result": 154, "unit": "%"},
      {"measurement": "MST (median survival time)", "setting": "murine leukemia; 8 mg/kg/inj IP, schedule d.1", "result": 10.0, "unit": "days"},
      {"measurement": "Effect MST % T/C", "setting": "murine leukemia; [6]", "result": 146, "unit": "%"},
      {"measurement": "MST (median survival time)", "setting": "murine leukemia; [6]", "result": 9.5, "unit": "days"},
      {"measurement": "Effect MST % T/C", "setting": "murine leukemia; 16 mg/kg/inj IP, schedule d.1", "result": 131, "unit": "%"},
      {"measurement": "MST (median survival time)", "setting": "murine leukemia; 16 mg/kg/inj IP, schedule d.1", "result": 8.5, "unit": "days"},
      {"measurement": "Effect MST % T/C", "setting": "murine leukemia; [7]", "result": 146, "unit": "%"},
      {"measurement": "MST (median survival time)", "setting": "murine leukemia; [7]", "result": 9.5, "unit": "days"},
      {"measurement": "Effect MST % T/C", "setting": "murine leukemia; 32 mg/kg/inj IP, schedule d.1", "result": 123, "unit": "%"},
      {"measurement": "MST (median survival time)", "setting": "murine leukemia; 32 mg/kg/inj IP, schedule d.1", "result": 8.0, "unit": "days"},
      {"measurement": "pIC50", "setting": "[2]", "result": 5.30},
      {"measurement": "pIC50", "setting": "Lewis lung carcinoma", "result": 5.23},
      {"measurement": "cytotoxicity associated with inhibition of DNA synthesis", "setting": "DNA synthesis", "result": "associated dominantly with the inhibition of DNA synthesis"},
      {"measurement": "pIC50", "setting": "L-1210 Leukemia", "result": 5.80},
      {"measurement": "pIC50", "setting": "B-16 melanoma", "result": 5.38},
      {"measurement": "inhibition at 0.1 µM", "setting": "[3]; 0.1 μM", "result": 6, "unit": "%"},
      {"measurement": "inhibition at 0.3 µM", "setting": "[3]; 0.3 μM", "result": 50, "unit": "%"},
      {"measurement": "inhibition at 1 µM", "setting": "[3]; 1.0 μM", "result": 75, "unit": "%"},
      {"measurement": "inhibition at 2 µM", "setting": "[3]; 2.0 μM", "result": 85, "unit": "%"},
      {"measurement": "inhibition at 20 µM", "setting": "[3]; 20.0 μM", "result": 95, "unit": "%"}
    ]}
  ]
}
